According to patent publication EP4345092A1, “NITROBENZAMIDE COMPOUNDS, METHODS AND USES THEREOF” (Faculdade de Farmácia da Universidade de Lisboa, priority 2022, dated 2024):
Values after ≈ are worked out from the molar mass of the structure shown. Values joined by “and” are separate entries in the source; they are usually repeats but may differ in a detail not shown here. Equal values may be shown once. Read-outs that look alike come from different tables or passages of the source.

What was measured:
[1] = test system: Mycobacterium tuberculosis H37Rv (ATCC 27294); experiment: Minimum Inhibitory Concentration (MIC), broth microdilution in 96-well plates; format: cell-based
[2] = test system: Mycobacterium tuberculosis H37Rv (ATCC 27294); experiment: microbe, parasite or virus in culture; format: cell-based; conditions: 504 h

| SMILES | MIC [1] | MBC [2] [µg/mL] | MIC ([1]; M. tuberculosis H37Rv, 10th day of incubation, concentration with no visible turbidity, read-out: MIC) [µg/mL] | MIC ([1]; M. tuberculosis H37Rv, 10th day of incubation, same MIC expressed in nM, read-out: MIC) [nM] |
| --- | --- | --- | --- | --- |
| O=C(NCCOc1ccc(-c2ccccc2)cc1)c1cc([N+](=O)[O-])cc([N+](=O)[O-])c1 [Compound 1] | 0.063 µg/mL and 0.155 µM | – | – | – |
| O=C(NCCOc1ccc(Br)cc1)c1cc([N+](=O)[O-])cc([N+](=O)[O-])c1 [Compound 5] | 0.063 µg/mL and 0.154 µM | – | – | – |
| O=C(NCCOc1ccc(C(F)(F)F)cc1)c1cc([N+](=O)[O-])cc([N+](=O)[O-])c1 [Compound 6] | 0.125 µg/mL and 0.313 µM | – | – | – |
| O=C(NCCOc1ccc(Cc2ccccc2)cc1)c1cc([N+](=O)[O-])cc([N+](=O)[O-])c1 [Compound 7] | 0.063 µg/mL and 0.149 µM | – | – | – |
| O=C(NCCCOc1ccc(-c2ccccc2)cc1)c1cc([N+](=O)[O-])cc([N+](=O)[O-])c1 [Compound 8, N-(3-(4-phenylphenoxy)propyl)-3,5-dinitrobenzamide] | 0.063 µg/mL and 0.149 µM | 0.125 (≈ 0.297 µM) | – | – |
| COc1ccc(OCCCNC(=O)c2cc([N+](=O)[O-])cc([N+](=O)[O-])c2)cc1 [Compound 9, N-(3-(4-methoxyphenoxy)propyl)-3,5-dinitrobenzamide] | 0.063 µg/mL and 0.168 µM | 0.125 (≈ 0.333 µM) | – | – |
| O=C(NCCCOc1ccc(OC(F)(F)F)cc1)c1cc([N+](=O)[O-])cc([N+](=O)[O-])c1 [Compound 10, N-(3-(4-trifluoromethoxyphenoxy)propyl)-3,5-dinitrobenzamide] | 0.063 µg/mL and 0.147 µM | 0.25 (≈ 0.582 µM) | – | – |
| O=C(NCCCOc1ccc(F)cc1)c1cc([N+](=O)[O-])cc([N+](=O)[O-])c1 [Compound 11, N-(3-(4-fluorophenoxy)propyl)-3,5-dinitrobenzamide] | 0.063 µg/mL and 0.173 µM | 0.125 (≈ 0.344 µM) | – | – |
| O=C(NCCCOc1ccc(C(F)(F)F)cc1)c1cc([N+](=O)[O-])cc([N+](=O)[O-])c1 [Compound 12, N-(3-(4-trifluoromethylphenoxy)propyl)-3,5-dinitrobenzamide] | 0.125 µg/mL and 0.302 µM | – | – | – |
| O=C(NCCCOc1ccccc1)c1cc([N+](=O)[O-])cc([N+](=O)[O-])c1 [Compound 13, N-(3-(phenoxy)propyl)-3,5-dinitrobenzamide] | 0.063 µg/mL and 0.182 µM | 0.125 (≈ 0.362 µM) | – | – |
| O=C(NCCCCCOc1ccc(-c2ccccc2)cc1)c1cc([N+](=O)[O-])cc([N+](=O)[O-])c1 [Compound 14, N-(5-(4-phenylphenoxy)pentyl)-3,5-dinitrobenzamide] | 0.063 µg/mL and 0.14 µM | 0.125 (≈ 0.278 µM) | – | – |
| COc1ccc(OCCCCCNC(=O)c2cc([N+](=O)[O-])cc([N+](=O)[O-])c2)cc1 [Compound 15, N-(5-(4-methoxyphenoxy)pentyl)-3,5-dinitrobenzamide] | 0.063 µg/mL and 0.156 µM | 0.125 (≈ 0.31 µM) | – | – |
| O=C(NCCCCCOc1ccc(OC(F)(F)F)cc1)c1cc([N+](=O)[O-])cc([N+](=O)[O-])c1 [Compound 16, N-(5-(4-trifluoromethoxyphenoxy)pentyl)-3,5-dinitrobenzamide] | 0.031 µg/mL and 0.0678 µM | 0.063 (≈ 0.138 µM) | – | – |
| O=C(NCCCCCOc1ccc([N+](=O)[O-])cc1)c1cc([N+](=O)[O-])cc([N+](=O)[O-])c1 [Compound 17, N-(5-(4-nitrophenoxy)pentyl)-3,5-dinitrobenzamide] | 0.031 µg/mL and 0.0741 µM | 0.125 (≈ 0.299 µM) | – | – |
| O=C(NCCCCCOc1ccc(F)cc1)c1cc([N+](=O)[O-])cc([N+](=O)[O-])c1 [Compound 18, N-(5-(4-fluorophenoxy)pentyl)-3,5-dinitrobenzamide] | 0.031 µg/mL and 0.0792 µM | 0.063 (≈ 0.161 µM) | – | – |
| O=C(NCCCCCOc1ccc(Cl)cc1)c1cc([N+](=O)[O-])cc([N+](=O)[O-])c1 [Compound 19, N-(5-(4-chlorophenoxy)pentyl)-3,5-dinitrobenzamide] | 0.016 µg/mL and 0.0392 µM | 0.063 (≈ 0.154 µM) | – | – |
| O=C(NCCCCCOc1ccc(C(F)(F)F)cc1)c1cc([N+](=O)[O-])cc([N+](=O)[O-])c1 [Compound 20, N-(5-(4-trifluoromethylphenoxy)pentyl)-3,5-dinitrobenzamide] | 0.031 µg/mL and 0.0702 µM | 0.063 (≈ 0.143 µM) | – | – |
| O=C(NCCCCCOc1ccc(Cc2ccccc2)cc1)c1cc([N+](=O)[O-])cc([N+](=O)[O-])c1 [Compound 21, N-(5-(4-benzylphenoxy)pentyl)-3,5-dinitrobenzamide] | 0.063 µg/mL and 0.136 µM | 0.25 (≈ 0.539 µM) | – | – |
| O=C(NCCCCCOc1ccc(Br)cc1)c1cc([N+](=O)[O-])cc([N+](=O)[O-])c1 [Compound 22, N-(5-(4-bromophenoxy)pentyl)-3,5-dinitrobenzamide] | 0.031 µg/mL and 0.0685 µM | 0.063 (≈ 0.139 µM) | – | – |
| O=C(NCCCCCOc1ccccc1)c1cc([N+](=O)[O-])cc([N+](=O)[O-])c1 [Compound 23, N-(5-(phenoxy)pentyl)-3,5-dinitrobenzamide] | 0.031 µg/mL and 0.083 µM | 0.063 (≈ 0.169 µM) | – | – |

| SMILES | MIC [1] | MBC [2] [µg/mL] | MIC ([1]; M. tuberculosis H37Rv, 10th day of incubation, concentration with no visible turbidity, read-out: MIC) [µg/mL] | MIC ([1]; M. tuberculosis H37Rv, 10th day of incubation, same MIC expressed in nM, read-out: MIC) [nM] |
| --- | --- | --- | --- | --- |
| COc1ccc(OCCCCCCCCCNC(=O)c2cc([N+](=O)[O-])cc([N+](=O)[O-])c2)cc1 [Compound 24, N-(9-(4-methoxyphenoxy)nonyl)-3,5-dinitrobenzamide] | 0.016 µg/mL and 0.0348 µM | 0.031 (≈ 0.0675 µM) | – | – |
| COc1ccc(OCCCCCCCCCCCNC(=O)c2cc([N+](=O)[O-])cc([N+](=O)[O-])c2)cc1 [Compound 26, N-(11-(4-methoxyphenoxy)undecyl)-3,5-dinitrobenzamide] | 0.063 µg/mL and 0.129 µM | 0.125 (≈ 0.256 µM) | – | – |
| C[N+]1(C)CCN(C(=O)c2cc([N+](=O)[O-])cc([N+](=O)[O-])c2)CC1 [Compound 28, 4-(3,5-dinitrobenzoyl)-1,1-dimethylpiperazin-1-ium] | > 16 µg/mL | > 16 | – | – |
| O=C(c1cc([N+](=O)[O-])cc([N+](=O)[O-])c1)N1CCN(Cc2ccccc2)CC1 [Compound 29, (3,5-dinitrophenyl)-4-benzylpiperazin-1-yl-methanone] | 2 µg/mL and 5.4 µM | 4 (≈ 10.8 µM) | – | – |
| O=C(c1cc([N+](=O)[O-])cc([N+](=O)[O-])c1)N1CCC(Cc2ccccc2)CC1 [Compound 31, (3,5-dinitrophenyl)-4-benzylpiperidin-1-yl-methanone] | 0.5 µg/mL and 1.35 µM | 2 (≈ 5.41 µM) | – | – |
| COc1ccc(OC2CCN(C(=O)c3cc([N+](=O)[O-])cc([N+](=O)[O-])c3)CC2)cc1 [Compound 32, (3,5-dinitrophenyl)(4-(4-methoxyphenoxy)piperidin-1-yl)methanone] | 2 µg/mL and 4.98 µM | – | – | – |
| O=C(c1cc([N+](=O)[O-])cc([N+](=O)[O-])c1)N1CCC(O)CC1 [Compound 33, (3,5-dinitrophenyl)-4-hydroxypiperidin-1-yl-methanone] | > 16 µg/mL | 16 (≈ 54.2 µM) | – | – |
| O=C(c1cc([N+](=O)[O-])cc([N+](=O)[O-])c1)N1CCCCC1 [Compound 34, (3,5-dinitrophenyl)-piperidin-1-yl-methanone] | > 16 µg/mL | 16 (≈ 57.3 µM) | – | – |
| O=C(c1cc([N+](=O)[O-])cc([N+](=O)[O-])c1)N1CCOCC1 [Compound 35, (3,5-dinitrophenyl)(morpholino)methanone] | > 16 µg/mL | > 16 | – | – |
| CCCCCCCCCOCCCCCCCCCNC(=O)c1cc([N+](=O)[O-])cc([N+](=O)[O-])c1 [Compound 36, N-(9-(nonyloxy)nonyl)-3,5-dinitrobenzamide] | 0.063 µg/mL and 0.127 µM | – | – | – |
| O=C(NCCCCCCCCCO)c1cc([N+](=O)[O-])cc([N+](=O)[O-])c1 [Compound 37, N-(9-hydroxynonyl)-3,5-dinitrobenzamide] | 0.25 µg/mL and 0.707 µM | – | – | – |
| O=C(NCCCCCO)c1cc([N+](=O)[O-])cc([N+](=O)[O-])c1 [Compound 38, N-(5-hydroxypentyl)-3,5-dinitrobenzamide] | 2 µg/mL and 6.73 µM | – | – | – |
| O=C(NCCCO)c1cc([N+](=O)[O-])cc([N+](=O)[O-])c1 [Compound 39, N-(3-hydroxypropyl)-3,5-dinitrobenzamide] | 4 µg/mL and 14.9 µM | – | – | – |
| O=C(NCCO)c1cc([N+](=O)[O-])cc([N+](=O)[O-])c1 [Compound 40, N-(2-hydroxyethyl)-3,5-dinitrobenzamide] | 16 µg/mL and 62.7 µM | – | – | – |
| O=C(NCCCCCCCCCCCO)c1cc([N+](=O)[O-])cc([N+](=O)[O-])c1 [Compound 41, N-(11-hydroxyundecyl)-3,5-dinitrobenzamide] | 0.125 µg/mL and 0.328 µM | 0.25 (≈ 0.655 µM) | – | – |
| O=C(NCCOc1ccccc1)c1cc([N+](=O)[O-])cc(C(F)(F)F)c1 [Compound 42] | – | – | 0.25 | 671 |
| O=C(NCCCCCN1CCCCC1)c1cc([N+](=O)[O-])cc([N+](=O)[O-])c1 [Compound 44] | 16 µg/mL and 43.9 µM | > 16 | – | – |
| O=[N+]([O-])c1cc(C2=NCCO2)cc([N+](=O)[O-])c1 [Compound 47, 2-(3,5-dinitrophenyl)-4,5-dihydrooxazole] | 2 µg/mL and 8.43 µM | 4 (≈ 16.9 µM) | – | – |
| O=[N+]([O-])c1cc(C2=NCCCO2)cc([N+](=O)[O-])c1 [Compound 48, 2-(3,5-dinitrophenyl)-5,6-dihydro-4H-1,3-oxazine] | 16 µg/mL and 63.7 µM | > 16 | – | – |
